The values that follow are results of earlier work, collected in US20080161337A1 (priority 2007, published 2008).

The test system of series [1] is SIBO. The note with it: for clinical efficacy for treating SIBO: antibiotics traditionally recommended for treating SIBO.
The subject of series [2] is functional bowel syndrome patients with abnormal LBT. The note with it: 20 functional bowel syndrome patients with abnormal LBT; 63-day average follow up.
In series [3] the test system is IBS patients. The note with it: 86 IBS patients; sustained for ten weeks after a ten day course.
For series [4], the system named is IBS patients with abnormal LBT. The conditions noted are these: 82 IBS patients with abnormal LBT; 54-day average follow up.
The test system of series [5] is SIBO. The conditions noted are these: 34 patients with SIBO and functional gastrointestinal symptoms.
In series [6] the test system is SIBO. The conditions noted are these: 21 patients with SIBO.
Series [7] has as its system IBS patients.

Turning to `Cc1ncc([N+](=O)[O-])n1CCO` [metronidazole], the “clinical efficacy for treating SIBO” value in the series with SIBO [1] was 5%.
For the molecule `CO[C@H]1/C=C/O[C@@]2(C)Oc3c(C)c(O)c4c(O)c(c5c(nc6cc(C)ccn65)c4c3C2=O)NC(=O)/C(C)=C\C=C\[C@H](C)[C@H](O)[C@@H](C)[C@@H](O)[C@@H](C)[C@H](OC(C)=O)[C@@H]1C` [rifaximin], the “solubility in water” value is recorded as “practically insoluble in water”. Also, the “combined global improvement rated great and moderate” value in series [2] is reported as 63%. The “global IBS symptoms” value in the series with IBS patients [3] is “statistically significant improvement”. Moreover, in series [4], the “combined global improvement rated great and moderate” value is reported as 60%. Moreover, the “LBT results and functional gastrointestinal symptoms” value in the series with SIBO [5] is “improved LBT results and functional gastrointestinal symptoms”. In addition, the “improvement in functional gastrointestinal symptoms” value in the series with SIBO [6] is given as “greater with rifaximin than chlortetracycline”. Further, in the series with SIBO [6] (rifaximin seven days at 1200 mg/day), the “patients with normalized LBT” value was 70%. In addition, the “effectiveness against SIBO” value with SIBO [1] (human, in vivo) is on record as “highly effective against SIBO”.
As for neomycin, the results versus placebo in the series with IBS patients [7] (111 IBS patients randomized to neomycin or placebo) is “significantly better results”. In the series with IBS patients [7] (when the LBT was normalized), the improvement of symptoms is recorded as 75%. Besides, the “clinical efficacy for treating SIBO” value in the series on SIBO [1] is listed as 25%.
